Entries after “also recorded” stand apart in the source; their conditions may differ.
Key:
[1] = test system: B. subtilis strain NCBI3610; assay: Pellicle (biofilm) formation inhibition assay in liquid biofilm-inducing medium; assay type: cell-based, Bacillus subtilis; settings: for concentration needed for inhibition of biofilm formation: B. subtilis pellicle formation; for biofilm-inhibitory activity (library of polyamines): B. subtilis; for inhibition of pellicle formation: final concentration of 50 μM
Method: Bacillus subtilis strains PY79, 3610 and their derivatives were grown in Luria-Bertani (LB) medium at 37° C. or MSgg medium (1) at 23° C. Solid media contained 1.5% Bacto agar. When appropriate, antibiotics were added at the following concentrations for growth of B. subtilis: 10 μg per ml of tetracycline, and 5 μg per ml of erythromycin, 500 μg per ml of spectinomycin.
B. subtilis strain NCBI3610 was grown at 22° C. in 12-well plates in liquid biofilm-inducing medium for 3 or 8 days. Conditioned medium (500 ml) from an 8-day-old culture was concentrated on the C-18 column and eluted step-wise with methanol.
To identify the second biofilm-inhibiting factor, high-performance liquid chromatography (HPLC) was carried out on the 25% methanol eluate using a phenyl-hexyl column. […] Cells of NCBI3610 were grown in fresh medium containing PBS buffer (control), norspermidine (100 μM), morpholine (100 μM) HPLC-purified fatty acid (˜100 μM), or spermidine (100 μM).
Pellicle formation of strain NCBI 3610 was tested in the presence of the indicated concentrations of norspermidine (FIG. 1D) or spermidine (FIG. 1E).
To identify features of norspermidine important for its biofilm disassembly activity, we tested a library of polyamines in our biofilm inhibition assay (FIGS. 9A, 9B, 10 and Table 2).
The effect of polyamines on pellicle formation by B. subtilis was examined. B. subtilis wild-type cells were grown to a mid-logarithmic phase and diluted 1:1000 in biofilm media applied with each polyamine to the final concentration of 50 μM.
The effect of cyclic polyamines on biofilm formation by B. subtilis was examined. B. subtilis wild-type cells were grown to a mid-logarithmic phase and diluted 1:1000 in biofilm media (18A) or in a medium applied with cyclic compound 1,5,9-Triazacyclododecane to the final concentration of 50 μM (18B).

[2] = test system: exopolysaccharide of B. subtilis NCBI 3610 cells; assay: Fluorescence microscopy of exopolysaccharide with concanavalin A-Texas Red; assay type: cell-based, Bacillus subtilis; settings: norspermidine 25 μM, spermidine 1 mM
Source text: The cells were washed in PBS and stained for exopolysaccharide with a conjugate of concanavalin A with Texas-Red.
(§1) To investigate further, exopolysaccharide was visualized by fluorescence microscopy using a conjugate of the carbohydrate-binding protein concanavalin A with Texas Red (FIG. 5) (McSwain et al., 2005). As evidence of specificity, the conjugate decorated wild-type cells but not cells from a mutant (Δeps) blocked in exopolysaccharide production (FIG. 6A). Indeed, at an exposure at which concanavalin A staining with the wild type strain gave an extremely bright fluorescent signal, little or no signal could be detected for the Δeps mutant, except at long exposures and enhanced brightness (FIG. 6A). Next, we investigated the effects of norspermidine and spermidine. […] Therefore, the difference in the staining was evidently due to differential levels of cell-associated exopolysaccharide. […] Thus, while not being bound to any theory, it is believed that norspermidine disrupts the matrix and by targeting exopolysaccharide.

[3] = test system: B. subtilis wild-type cells; assay: Biofilm formation on solid biofilm medium; assay type: cell-based, Bacillus subtilis; settings: 1 μl cells mixed with 1 μl (1 mM) polyamine
Method: B. subtilis wild-type cells were grown to a mid-logarithmic phase and 1 μl of cells was mixed with 1 μl (1 mM) of each polyamine. The mixture was plated on solid biofilm medium.
B. subtilis wild-type cells were grown to a mid-logarithmic phase and 1 μl of cells was either mixed with PBS (18C) or mixed with 1 μl (1 mM) of each polyamine (18D). The mixture was plated on solid biofilm medium. “3*” refers to 1,5,9-Triazacyclododecane.

TasA-mCherry = assay: Fluorescence microscopy of TasA-mCherry fusion; assay type: cell-based, Bacillus subtilis; settings: norspermidine 50 μM
Method: NCBI 3610 containing the tasA-mCherry fusion (DR30) was grown without shaking in a biofilm medium (upper row) or in the same medium applied with norspermidine (50 μM, lower row). Cells were washed in PBS, and visualized by fluorescence microscopy.
as §1

B. subtilis NCBI 3610 = assay: Cell growth in MSgg medium with shaking; assay type: cell-based, Bacillus subtilis; settings: norspermidine 100 μM
Method: NCBI 3610 was grown in MSgg medium applied with norspermidine (100 μM) with shaking or in untreated medium served as a control (NT). […] Therefore, whether norspermidine interacts directly with the exopolysaccharide was investigated. To attempt to detect such an interaction, dynamic light scattering was used. Dynamic scattering is a standard procedure for measuring the average radius of polymers in which a laser beam is transmitted through a sample containing polymers in solution (Berne, 1976; Orgad et al., 2011; Vinayahan et al., 2010).

S. aureus strain SCO1 = assay: Submerged biofilm formation, crystal violet staining; assay type: cell-based, Staphylococcus aureus; settings: norspermidine 10 μM, norspermine 100 μM; library at 500 μM
Method: (§2) The compounds were tested at 500 μM. Biofilm formation was visualized by crystal violet staining of submerged biofilms.
(§3) Whether polyamines might prevent biofilm formation by other bacteria that produce an exopolysaccharide matrix was examined. […] The compounds were tested at 500 μM. Biofilm formation was visualized by crystal violet staining of submerged biofilms.
Similarly, FIGS. 19A-H show the results of S. aureus strain SC-01 grown to a mid-logarithmic phase and diluted 1:1000 into a 12 wells plate in a TSB medium applied with NaCl (3%) and Glucose (0.5%). The medium was applied with norspermidine (10 μM), norspermine (100 μM) or spermine (500 μM). Planktonic cells were removed (19A-D). Wells were washed once, and incubated with Crystal Violet (0.1%) for 15 mins. Wells were washed twice in DDW (19E-H).
The effect of certain polyamines combined with biofilm-inhibiting D-amino acids in Staphylococcus was examined. S. aureus strain SC-01 was grown to a mid-logarithmic phase and diluted 1:1000 into a 12 wells plate in a TSB medium applied with NaCl (3%) and Glucose (0.5%). The medium was applied with either norspermidine or D-tyrosine or both as indicated below each panel. Planktonic cells were removed Wells were washed once, and incubated with Crystal Violet (0.1%) for 15 mins. Wells were washed twice in DDW.

E. coli strain MC4100 = assay: as above; assay type: cell-based, Escherichia coli; settings: library tested at 500 μM
Method: as §2, §3
(§4) In testing E. coli, the biofilm-proficient strain MC4100 was selected because a major component of exopolysacchride is colanic acid (Danese et al., 2000; Price and Raivio, 2009).

[4] = test system: exopolysaccharide of S. aureus cells; assay: Fluorescence microscopy of exopolysaccharide staining; assay type: cell-based, Staphylococcus aureus
[5] = test system: exopolysaccharide of E. coli cells; assay: as above; assay type: cell-based, Escherichia coli
Source text: as §4

[6] = test system: P. aeriginosa strain PA14; assay: Biofilm formation on solid M63 medium; assay type: cell-based, Pseudomonas aeruginosa; settings: 1 μl cells mixed with 1 μl (10 mM) polyamine
Method: The effect of polyamines on biofilm formation by Pseudomonas was examined. P. aeriginosa strain PA14 were grown to a mid-logarithmic phase and 1 μl of cells was mixed with 1 μl (10 mM) of each polyamine. The mixture was plated on solid M63 medium.

[7] = test system: Proteus mirabilis strain BB2000; assay: Biofilm formation in polystyrene wells, crystal violet OD 595 nm; assay type: cell-based; settings: 1 mM, 48 hours at 30° C., vs no treatment control
Method: To examine the effects of polyamines on biofilm formation, wells were initially treated with water (no treatment), 1 mM norspermidine, and 1 mM norspermine in 3 ml M9+glucose before inoculation with P. mirabilis. Biofilms were permitted to grow for 48 hours at 30° C. without shaking The amount of biofilm formed was assessed with the standard assay of crystal violet staining (O'Toole G et al., Biofilm formation as microbial development, Annu Rev. Microbiol. (2000) 54:49-79); supernatant was removed from the wells and crystal violet (at […]) was then incubated in each well for 15 minutes at room temperature, followed by removal of the crystal violet from the wells and a subsequent washes with water. Any crystal violet attached the wells was next solubilized with 95% ethanol for 15 minutes at room temperature, and the subsequent optical density at 595 nm in each well was measured with a multiplate reader.

[8] = test system: B. subtilis strain NCBI3610; assay: Pellicle (biofilm) formation inhibition assay in liquid biofilm-inducing medium; assay type: cell-based, Bacillus subtilis
B. subtilis pellicles = assay: Disassembly of pre-formed pellicles (OD600 of medium vs pellicle); assay type: cell-based, Bacillus subtilis; settings: 250 μM applied at day 2, additional 24 hrs
Method: After incubation for the indicated times, pellicle material and the medium were separated and each brought to a volume of 3 ml. After mild sonication, the OD600 was determined for each sample. The % of disassembly represents the OD600 of the medium as a percent of the sum of the OD600 of the medium and the OD600 of the pellicle. […] Thus, D-amino acids and norspermidine act synergistically in preventing biofilm formation and triggering the disassembly of mature biofilms.
Whether polyamines could trigger disassembly of biofilms formed by B. subtilis was examined. B. subtilis wild-type cells grown in liquid biofilm medium. Cells were grown to mid-logarithmic phase and diluted 1:1000 in liquid biofilm media. At day 2, pre-formed pellicles were applied with either PBS (A) or norspermine (250 μM) (B). Pellicles were incubated for additional 24 hrs.

## 1,3-diaminopropane [Molecule 6]
[1]
  concentration needed for inhibition of biofilm formation: > 5 mM

## NCCCN(CCCN)CCCN [Molecule 21, N^1,N^1-bis(3-aminopropyl)propane-1,3-diamine]
[1]
  biofilm-inhibitory activity (library of polyamines): did not block activity

## NCCCCNCCCN [Molecule 3, spermidine, reference compound]
[1]
  concentration needed for inhibition of biofilm formation: > 2 mM
  inhibition of pellicle formation: do not
[2]
  pattern of exopolysaccharide staining: No such effect
[3]
  inhibition of biofilm formation on solid biofilm medium: do not

## NCCCNCCCN [Molecule 1, N-(3-aminopropyl)propane-1,3-diamine]
[1]
  biofilm-inhibitory activity (library of polyamines): exhibited biofilm-inhibitory activity
  inhibition of pellicle formation: inhibit biofilm formation
[1]; B. subtilis biofilm inhibition assay
  MBIC- Minimal Biofilm Inhibitory Concentration: 25 to 50 µM
[1]; authentic norspermidine, NCBI3610 pellicle
  concentration at which biofilm formation was inhibited: 25 µM
[2]
  pattern of exopolysaccharide staining: disrupted the relatively uniform, cell-associated pattern of staining
TasA-mCherry
  effect on protein component of the matrix (TasA-mCherry): little or no effect
B. subtilis NCBI 3610
  cell growth: not significantly inhibited
S. aureus strain SCO1
  inhibition of biofilm formation by S. aureus: inhibited the formation of submerged biofilms; also recorded: inhibit biofilm formation
E. coli strain MC4100
  inhibition of biofilm formation by E. coli: inhibited the formation of submerged biofilms
[4]
  staining of exopolysaccharide, S. aureus: markedly diminished staining
[5]
  staining of exopolysaccharide, E. coli: markedly diminished staining
[3]
  inhibition of biofilm formation on solid biofilm medium: inhibit biofilm formation
[6]
  inhibition of biofilm formation by Pseudomonas: inhibit biofilm formation
[7]
  reduction of Proteus mirabilis biofilm formation: sufficient to reduce biofilm formation
[8]; ΔepsH, DS76, 25 μM norspermidine
  effect on residual pellicle of exopolysaccharide mutant: little effect
[8]; ΔtasA, FC55, 25 μM norspermidine
  effect on pellicle formation by amyloid fiber mutant: abolished pellicle formation

## speramide [reference compound]
[1]
  inhibition of pellicle formation: do not
[3]
  inhibition of biofilm formation on solid biofilm medium: do not

## C1CNCCCNCCCNC1 [c, 1,5,9-triazacyclododecane]
[1]
  inhibition of pellicle formation: inhibits biofilm formation
[3]
  inhibition of biofilm formation on solid biofilm medium: inhibits biofilm formation

## NCCCNCCCNCCCN [Molecule 2, N′-[3-(3-aminopropylamino)propyl]propane-1,3-diamine]
[1]
  biofilm-inhibitory activity (library of polyamines): exhibited biofilm-inhibitory activity
  inhibition of pellicle formation: inhibit biofilm formation
B. subtilis pellicles
  disassembly of pre-formed pellicles: triggered disassembly
S. aureus strain SCO1
  inhibition of biofilm formation by S. aureus: inhibited the formation of submerged biofilms; also recorded: inhibit biofilm formation
E. coli strain MC4100
  inhibition of biofilm formation by E. coli: inhibited the formation of submerged biofilms
[3]
  inhibition of biofilm formation on solid biofilm medium: inhibit biofilm formation
[6]
  inhibition of biofilm formation by Pseudomonas: inhibit biofilm formation
[7]
  reduction of Proteus mirabilis biofilm formation: sufficient to reduce biofilm formation

Source: patent US20140056952A1, “METHODS AND COATINGS FOR TREATING BIOFILMS” (President and Fellows of Harvard College, priority 2011, published 2014)
